What was measured:
[1] = system: E. coli strain JC7623dxr:CAT; test: growth of dxr-disrupted E. coli strain JC7623dxr:CAT (ME auxotrophy, complementation studies); format: cell-based, Escherichia coli; conditions: strain JC7623dxr:CAT carrying plasmid pBAD-DXR or pBAD-GFPuv
Description: The region extending from the 5′-region of the dxr gene to the 3′-flanking region of the yaeS gene was amplified by PCR using genomic DNA isolated from the wild type E. coli strain-W3110 (Kohara et al., 1987) and the primers P1(5′-CTCTGGATGT CATATGAAGCAACTC-3′ (SEQ ID NO:3); the underlined ATG corresponds to the translation start codon of the dxr gene) and P2 (5′-CCGCATAACACCGCCAACC-3′ (SEQ ID NO:4); located at the 3′-flanking region of the yaeS gene). The reaction mixture for the PCR was prepared in a final volume of 50 μl, containing the DNA template (100 ng), 0.5 μM of each primer, 200 μM of each deoxynucleoside triphosphate, 20 mM of Tris-HCl adjusted to pH 8.8, 2 mM Of MgSO4, 10 mM of KCI, 10 mM of (NH4)2SO4, 0.1 mg/ml of BSA and 0.1% Triton X-100. The sample was covered with mineral oil, incubated at 94° C. for 3 min and cooled to 80° C. Pfu DNA polymerase (1.25 units, Stratagene) was added and the reaction mixture was incubated for 30 cycles consisting of 45 sec at 94° C., 45 sec at 59° C. and 10 min at 72° C., followed by a final step of 10 min at 72° C. After amplification, adenines were added to the 3′ ends of the PCR product as indicated by the manufacturers protocol and the adenylated product was cloned into the pGEM-T vector (Promega), to create plasmid pMJ1. […]

[2] = background statement; cited from earlier work

| Structure (SMILES) | growth of strain on medium containing the substance [1] | vitamin E activity [2] [IU/mg] |
| --- | --- | --- |
| C[C@](O)(CO)[C@H](O)CO [ME, 2-C-methyl-D-erythritol] | grows on medium containing ME | – |
| Cc1c(C)c2c(c(C)c1O)CC[C@@](C)(CCC[C@H](C)CCC[C@H](C)CCCC(C)C)O2 [d-α-tocopherol] | – | 1.49 |
| Cc1c(C)c2c(c(C)c1O)CCC(C)(CCCC(C)CCCC(C)CCCC(C)C)O2 (stereo not drawn) [synthetic α-tocopherol, d,l-α-tocopherol] | – | 1.1 |

Source: patent publication US7335815B2, “Nucleic acid sequences to proteins involved in isoprenoid synthesis” (Calgene LLC, priority 1999, dated 2008)
